# Source: patent US20220135526A1, “QUATERNARY AMMONIUM SALT COMPOUND, PREPARATION METHOD THEREFOR AND USE THEREOF” (WEST CHINA HOSPITAL, SICHUAN UNIVERSITY, priority 2019, published 2022)
# Assays:
# [1] = test system: back skin of SD rat; assay: Local anesthetic effect by subcutaneous infiltration (back skin, Von Frey fiber 100 g); format: in vivo; conditions: SD rats, 0.5 mL subcutaneous in saline; compounds 6 mmol/L, controls 0.75% (22 mmol/L) and 2% (74 mmol/L)
# Experimental: After the back of SD rat weighing 250-300 g (half female and half male) was shaved and disinfected, a circle with a diameter of about 1.5 cm was drawn on the side of the exposed back, and the circle is divided into 6 equal parts. […] Among the Von Frey fiber yarns, the one with a strength of 100 g was bound to the needle for local skin stimulation. One minute After the drug was injected, the above method was used to stimulate in 6 divisions. […] If back skin contraction was observed, the local anesthetic effect was considered as loss. […] Each compound was tested with 10 rats.
# [2] = test system: rat's sciatic nerve; assay: Local anesthetic effect after injection near the rat sciatic nerve (von Frey stimulation; Postural Extensor Thrust for motor function); format: in vivo; conditions: SD rats, 0.5 mL near sciatic nerve, compounds 20 mmol/mL; for Duration of motor block: Postural Extensor Thrust; for Duration of motor block / Duration of sensory block: levobupivacaine 0.75%, lidocaine 2%; for Local anesthesia onset time: levobupivacaine 0.75% (22 mmol/L), lidocaine 2% (74 mmol/L); for Duration of sensory block: von Frey
# Experimental: Dosage: for lidocaine group, lidocaine was formulated with distilled water into a solution at the concentration of 2% (74 mmol/L); for levobupivacaine group, levobupivacaine was formulated with distilled water into a solution at the concentration of 0.75% (22 mmol/L); the compound of the present invention was formulated with distilled water into a solution at the concentration of […].
# The injection volume for each rat was 0.5 mL, which was guided by a nerve locator and injected near the rat's sciatic nerve. Using von Frey stimulator, the rats were stimulated the soles of the feet in the injected side, to observe the effect of local anesthesia. Meanwhile, Postural Extensor Thrust (PET) was used to evaluate the motor function of the rat: the rat was lifted vertically and the hindlimb in the injected side pedaled on the platform of the electronic balance. […] When the limb was completely paralyzed, the reading was the limb's own weight, about 20 g. If the measured value was more than half of the difference between the baseline and the limb weight, the motor function was regarded as recovery, and if the value was […], the motor function was regarded as loss.
Structure (SMILES),Duration of local anesthesia (median) [1],Local anesthesia onset time (median) [1],Duration of motor block [2],Local anesthesia onset time [2],Duration of sensory block [2]
Cc1cccc(C)c1NC(=O)C[N+]1(CCCCN2CCCCC2C(=O)Nc2c(C)cccc2C)CCOCC1C (stereo not shown) [Example 49 product],62 h,1 min,20 h,4 min,45 h
CCOCCC[N+](CCCCCCN1CCCCC1C(=O)Nc1c(C)cccc1C)(CCCOCC)CC(=O)Nc1c(C)cccc1C.[Br-] (stereo not shown) [Example 22 product],63 h,2 min,15 h,3 min,47 h
CCCCC[N+](CCCCCCN1CCCCC1C(=O)Nc1c(C)cccc1C)(CCOCC)CC(=O)Nc1c(C)cccc1C (stereo not shown) [Example 20 product],47 h,3 min,14 h,5 min,54 h
CCCCC[N+](CCO)(CCCCCCN1CCCC1C(=O)Nc1c(C)cccc1C)CC(=O)Nc1c(C)cccc1C (stereo not shown) [Example 59 product],72 h,1 min,15 h,1 min,54 h
Cc1cccc(C)c1NC(=O)C[N+](CCO)(CCCCO)CCCCCCN1CCCC1C(=O)Nc1c(C)cccc1C (stereo not shown) [Example 60 product],66 h,2 min,20 h,1 min,54 h
CCCCCC[N+](CCCCCCN1CCCCC1C(=O)Nc1c(C)cccc1C)(CCOCCC)CC(=O)Nc1c(C)cccc1C (stereo not shown) [Example 37 product],64 h,1 min,17 h,1 min,45 h
COCC[N+](CCCCO)(CCCCCCN1CCCCC1C(=O)Nc1c(C)cccc1C)CC(=O)Nc1c(C)cccc1C (stereo not shown) [Example 36 product],81 h,1 min,21 h,5 min,52 h
CCCCCC[N+](CCCCCC)(CCCN1CCCCC1C(=O)Nc1c(C)cccc1C)CC(=O)Nc1c(C)cccc1C (stereo not shown) [Example 73 product],59 h,2 min,20 h,3 min,51 h
Cc1cccc(C)c1NC(=O)C[N+](CCCCCCCS)(CCCCCCCN1CCCCC1C(=O)Nc1c(C)cccc1C)CCCCCC(=O)O (stereo not shown) [Example 45 product],89 h,1 min,20 h,3 min,58 h
Cc1cccc(C)c1NC(=O)C[N+]1(CCCSCCCN2CCCCC2C(=O)Nc2c(C)cccc2C)CC(C)OC(C)C1 (stereo not shown) [Example 58 product],71 h,2 min,16 h,3 min,57 h
CCCCC[N+](CCCCC)(CCCN1CCCCC1C(=O)Nc1c(C)cccc1C)CC(=O)Nc1c(C)cccc1C (stereo not shown) [Example 1 product],25 h,1 min,21 h,3 min,32 h
Cc1cccc(C)c1NC(=O)C[N+]1(CCCOCCCN2CCCCC2C(=O)Nc2c(C)cccc2C)CC(C)OC(C)C1 (stereo not shown) [Example 32 product],56 h,2 min,17 h,2 min,46 h
CCCCCCC[N+](CCCCC)(CCOCCN1CCCCC1C(=O)Nc1c(C)cccc1C)CC(=O)Nc1c(C)cccc1C (stereo not shown) [Example 76 product],64 h,2 min,14 h,3 min,59 h
Cc1cccc(C)c1NC(=O)C[N+](CCO)(CCO)CCCCCCN1CCCCC1C(=O)Nc1c(C)cccc1C (stereo not shown) [Example 17 product],56 h,2 min,18 h,5 min,37 h
CCCCCCCC[N+](CCCCCC(=O)O)(CCCOCCCN1CCCCC1C(=O)Nc1c(C)cccc1C)CC(=O)Nc1c(C)cccc1C (stereo not shown) [Example 39 product],89 h,2 min,19 h,3 min,61 h
CCOCC[N+](CCCCO)(CCCCCCN1CCCCC1C(=O)Nc1c(C)cccc1C)CC(=O)Nc1c(C)cccc1C (stereo not shown) [Example 35 product],92 h,2 min,13 h,2 min,54 h
Cc1cccc(C)c1NC(=O)C[N+](CCCO)(CCCCO)CCCCCCN1CCCCC1C(=O)Nc1c(C)cccc1C.[Br-] (stereo not shown) [Example 18 product],49 h,1 min,16 h,2 min,38 h
CCCCCCCCCC[N+](CCCCCCCC)(CCCCCCCCCCCN1CCCCC1C(=O)Nc1c(C)cc(C)cc1C)CC(=O)Nc1c(C)cccc1C (stereo not shown) [Example 24 product],89 h,2 min,11 h,4 min,54 h
CCCCC[N+](CCCCO)(CCCCCCCN1CCCCCC1C(=O)Nc1c(C)cccc1C)CC(=O)Nc1c(C)cccc1C (stereo not shown) [Example 26 product],92 h,3 min,16 h,5 min,45 h
CCCCC[N+](CCCS)(CCCCCCCCN1CCCCCCC1C(=O)Nc1c(C)cccc1C)CC(=O)Nc1c(C)cccc1C (stereo not shown) [Example 57 product],85 h,1 min,13 h,5 min,69 h
CCOCC[N+](CCCCCCN1CCC1C(=O)Nc1c(C)cccc1C)(CCOCC)CC(=O)Nc1c(C)cccc1C (stereo not shown) [Example 67 product],58 h,1 min,14 h,1 min,67 h
CCCCC[N+](CCCCCCCN1CCCCCC1C(=O)Nc1c(C)cccc1C)(CCOCC)CC(=O)Nc1c(C)cccc1C (stereo not shown) [Example 70 product],75 h,4 min,17 h,2 min,53 h
CCCCCCCC[N+](CCCCCCC)(CCCN1CCCCC1C(=O)Nc1c(C)cccc1C)CC(=O)Nc1c(C)cccc1C (stereo not shown) [Example 74 product],56 h,1 min,17 h,1 min,72 h
Cc1cccc(C)c1NC(=O)C[N+](CCCCO)(CCCCO)CCCCCCN1CCC1C(=O)Nc1c(C)cccc1C (stereo not shown) [Example 66 product],87 h,1 min,10 h,1 min,60 h
CCCCCCCCCC[N+](CCCCCCCCCC)(CCOCCN1CCCCC1C(=O)Nc1c(C)cccc1C)CC(=O)Nc1c(C)cccc1C (stereo not shown) [Example 2 product],44 h,2 min,33 h,4 min,44 h
Cc1cccc(C)c1NC(=O)C[N+]1(CCCCN2CCCCC2C(=O)Nc2c(C)cccc2C)CCOC(C)C1 (stereo not shown) [Example 48 product],73 h,2 min,15 h,5 min,57 h
